Laboratory results from patent US20260317324A1, “BIFUNCTIONAL COMPOUNDS FOR DEGRADING BRAF VIA UBIQUITIN PROTEOSOME PATHWAY” (Nurix Therapeutics, Inc., priority 2023, published 2026).

What was measured:
Assay type in all cases: cell-based
BRAF V600E = biological target: T1, BRAF V600E (Homo sapiens, UniProt P15056, V600E); experiment: BRAF HiBiT degradation assay, C-terminal HiBiT-tagged BRAF V600E A375 cells (clone 1F10), Nano-Glo HiBiT Lytic assay; conditions: for Dmax: A-375
T1 construct: endogenous C-terminal HiBiT fusion tag on BRAF V600E allele; endogenous in cells; host or cells: A375 clone 1F10 (CRISPR-Cas9 knock-in of the HiBiT tag; parental A375 from ATCC)
T1 sequence (P15056 whole entry V600E, the tested form may be a part): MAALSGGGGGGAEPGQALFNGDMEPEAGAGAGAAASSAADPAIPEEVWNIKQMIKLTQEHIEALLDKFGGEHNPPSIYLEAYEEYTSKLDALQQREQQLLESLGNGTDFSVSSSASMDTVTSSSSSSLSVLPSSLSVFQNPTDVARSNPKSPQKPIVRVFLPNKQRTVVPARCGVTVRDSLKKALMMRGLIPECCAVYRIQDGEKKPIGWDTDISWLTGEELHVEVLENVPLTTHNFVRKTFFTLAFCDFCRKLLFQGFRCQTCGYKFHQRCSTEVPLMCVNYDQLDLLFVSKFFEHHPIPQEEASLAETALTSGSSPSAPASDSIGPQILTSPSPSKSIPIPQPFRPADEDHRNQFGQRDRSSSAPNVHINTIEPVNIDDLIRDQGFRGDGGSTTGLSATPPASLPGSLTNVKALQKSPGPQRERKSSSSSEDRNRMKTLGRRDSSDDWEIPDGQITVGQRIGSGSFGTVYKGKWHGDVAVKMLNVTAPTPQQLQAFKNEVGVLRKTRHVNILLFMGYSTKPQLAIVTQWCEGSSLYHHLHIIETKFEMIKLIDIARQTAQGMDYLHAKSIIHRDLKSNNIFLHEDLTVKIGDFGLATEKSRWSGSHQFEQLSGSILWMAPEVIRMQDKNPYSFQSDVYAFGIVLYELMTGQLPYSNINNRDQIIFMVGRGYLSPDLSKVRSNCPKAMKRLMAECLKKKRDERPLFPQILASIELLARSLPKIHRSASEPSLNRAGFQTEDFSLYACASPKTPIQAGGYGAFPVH
In short: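 A375 cells (clone 1F10, endogenous C-terminal HiBiT on BRAF V600E) were seeded at 10,000 cells/well, grown 24 h, then dosed in duplicate with an 11-point series from 1 μM to 0.01 nM (0.2% DMSO). Nano-Glo HiBiT lytic luminescence was normalised to DMSO and wildtype-A375 background; DC50 was read at 50% protein remaining, alongside observed Dmax.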

BRAF G469A = biological target: T2, BRAF G469A (Homo sapiens, UniProt P15056, G469A); experiment: BRAF HiBiT degradation assay, C-terminal HiBiT-tagged BRAF G469A overexpressed in HCT-116 BRAF−/− cells (clone 34), Nano-Glo HiBiT Lytic assay
T2 construct: Horizon Discovery (HCT-116 BRAF−/− cells); host or cells: HCT-116 BRAF−/− cells, clone 34, lentiviral transduction
T2 sequence (P15056 whole entry G469A): as the sequence (P15056 whole entry V600E, the tested form may be a part) above, with G469A, E600V counted along it
In short: (§1)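 HCT-116 BRAF−/− clones stably overexpressing C-terminal HiBiT-tagged mutant BRAF were seeded 24 h before treatment with an 11-point half-log series from 1 μM to 0.01 nM (0.2% DMSO final). Remaining protein was read by HiBiT lytic luminescence, with DMSO and wildtype-cell controls. DC50 was taken as the fitted concentration at 50% remaining protein; observed Dmax is reported relative to DMSO.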

BRAF G466V = biological target: T3, BRAF G466V (Homo sapiens, UniProt P15056, G466V); experiment: BRAF HiBiT degradation assay, C-terminal HiBiT-tagged BRAF G466V overexpressed in HCT-116 BRAF−/− cells (clone 8), Nano-Glo HiBiT Lytic assay
T3 construct: Horizon Discovery (HCT-116 BRAF−/− cells); host or cells: HCT-116 BRAF−/− cells, clone 8, lentiviral transduction
T3 sequence (P15056 whole entry G466V): as the sequence (P15056 whole entry V600E, the tested form may be a part) above, with G466V, E600V counted along it
In short: as §1

BRAF D594G = biological target: T4, BRAF D594G (Homo sapiens, UniProt P15056, D594G); experiment: BRAF HiBiT degradation assay, C-terminal HiBiT-tagged BRAF D594G overexpressed in HCT-116 BRAF−/− cells (clone 63), Nano-Glo HiBiT Lytic assay
T4 construct: Horizon Discovery (HCT-116 BRAF−/− cells); host or cells: HCT-116 BRAF−/− cells, clone 63, lentiviral transduction
T4 sequence (P15056 whole entry D594G): as the sequence (P15056 whole entry V600E, the tested form may be a part) above, with D594G, E600V counted along it
In short: as §1

[1] = A375 (BRAF V600E, Class 1), DC50 at 50% degradation
[2] = A375 (BRAF V600E, Class 1), observed Dmax, % protein degraded relative to DMSO control
[3] = BRAF G469A (Class 2), HCT-116 BRAF−/− cells, DC50 at 50% degradation
[4] = BRAF G469A (Class 2), HCT-116 BRAF−/− cells, observed Dmax relative to DMSO control
[5] = BRAF G466V (Class 3), HCT-116 BRAF−/− cells, DC50 at 50% degradation
[6] = BRAF G466V (Class 3), HCT-116 BRAF−/− cells, observed Dmax relative to DMSO control
[7] = BRAF D594G (Class 3), HCT-116 BRAF−/− cells, DC50 at 50% degradation
[8] = BRAF D594G (Class 3), HCT-116 BRAF−/− cells, observed Dmax relative to DMSO control

| SMILES | DC50 (BRAF V600E; [1]) [µM] | Dmax (BRAF V600E; [2]) [%] | DC50 (BRAF G469A; [3]) [µM] | Dmax (BRAF G469A; [4]) [%] | DC50 (BRAF G466V; [5]) [µM] | Dmax (BRAF G466V; [6]) [%] | DC50 (BRAF D594G; [7]) [µM] | Dmax (BRAF D594G; [8]) [%] | DC50 (BRAF V600E; A375 (BRAF V600E), DC50 at 50%: fitted conc. at Y=50) [µM] | Dmax (BRAF V600E; A375 (BRAF V600E), percentage protein degraded at maximal compound effect relative to DMSO) [%] | DC50 (BRAF G469A; Class 2, BRAF G469A, DC50 at 50%: fitted conc. at Y=50) [µM] | Dmax (BRAF G469A; HCT-116, Class 2, BRAF G469A, percentage protein degraded at maximal compound effect relative to DMSO) [%] | DC50 (BRAF G466V; BRAF G466V, DC50 at 50%: fitted conc. at Y=50) [µM] | Dmax (BRAF G466V; HCT-116, BRAF G466V, percentage protein degraded at maximal compound effect relative to DMSO) [%] | DC50 (BRAF D594G; BRAF D594G, DC50 at 50%: fitted conc. at Y=50) [µM] | Dmax (BRAF D594G; HCT-116, BRAF D594G, percentage protein degraded at maximal compound effect relative to DMSO) [%] |
| --- | --- | --- | --- | --- | --- | --- | --- | --- | --- | --- | --- | --- | --- | --- | --- | --- |
| C[C@@H]1CN(c2ccc(-n3cc(-c4cc(Cl)cc(NS(=O)(=O)N5CCCC5)c4F)c(-c4ccncc4)n3)nc2)CCN1CC1CCN(c2ccc([C@H]3CCC(=O)NC3=O)cn2)CC1 [Compound 325, N-[5-chloro-3-(1-{5-[(3R)-4-[(1-{5-[(3R)-2,6-dioxopiperidin-3-yl]pyridin-2-yl}piperidin-4-yl)methyl]-3-methylpiperazin-1-yl]pyridin-2-yl}-3-(pyridin-4-yl)-1H-pyrazol-4-yl)-2-fluorophenyl]pyrrolidine-1-sulfonamide] | < 0.01 | > 70 | 0.01 to 0.05 | > 70 | < 0.01 | > 70 | < 0.01 | > 70 |  |  |  |  |  |  |  |  |
| CCCS(=O)(=O)Nc1cccc(-c2nc(C(C)(C)C)sc2-c2ccnc(Nc3cccc(OC4CCN(C(=O)C[C@@H]5CCN(c6ccc(C7CCC(=O)NC7=O)cc6)C5)CC4)c3)n2)c1F (mixture of isomers) [Compound 92, N-(3-{2-tert-butyl-5-[2-({3-[(1-{2-[(3S)-1-{4-[(3RS)-2,6-dioxopiperidin-3-yl]phenyl}pyrrolidin-3-yl]acetyl}piperidin-4-yl)oxy]phenyl}amino)pyrimidin-4-yl]-1,3-thiazol-4-yl}-2-fluorophenyl)propane-1-sulfonamide] |  |  |  |  |  |  |  |  | > 0.5 | 30 to 70 | > 0.5 | < 30 | > 0.5 | < 30 | > 0.5 | < 30 |
| O=C1CCN(c2ccc(N3CCC(CN4CCN(c5ccc(-n6cc(-c7cc(F)cc(NS(=O)(=O)N8CC[C@@H](F)C8)c7F)c(-c7ccncc7)n6)nc5)CC4)CC3)cc2)C(=O)N1 [Compound 303, (3R)—N-[3-(1-{5-[4-({1-[4-(2,4-dioxo-1,3-diazinan-1-yl)phenyl]piperidin-4-yl}methyl)piperazin-1-yl]pyridin-2-yl}-3-(pyridin-4-yl)-1H-pyrazol-4-yl)-2,5-difluorophenyl]-3-fluoropyrrolidine-1-sulfonamide] | < 0.01 | > 70 | 0.05 to 0.5 | 30 to 70 | 0.01 to 0.05 | 30 to 70 | < 0.01 | 30 to 70 |  |  |  |  |  |  |  |  |
| CCCS(=O)(=O)Nc1cc(Cl)cc(-c2cn(-c3ccc(N4CCN(CC5CCN(c6ccc([C@H]7CCC(=O)NC7=O)cc6)CC5)[C@@H](C)C4)cc3)nc2-c2ccncc2)c1F [Compound 278, N-[5-chloro-3-(1-{4-[(3S)-4-[(1-{4-[(3R)-2,6-dioxopiperidin-3-yl]phenyl}piperidin-4-yl)methyl]-3-methylpiperazin-1-yl]phenyl}-3-(pyridin-4-yl)-1H-pyrazol-4-yl)-2-fluorophenyl]propane-1-sulfonamide] | < 0.01 | > 70 | > 0.5 | 30 to 70 | < 0.01 | > 70 | 0.05 to 0.5 | 30 to 70 |  |  |  |  |  |  |  |  |
| C[C@@H]1CN(c2ccc(-n3cc(-c4cc(Cl)cc(NS(=O)(=O)N5CC[C@@H](F)C5)c4F)c(-c4ccncc4)n3)cc2)CCN1CC1CCN(c2ccc(N3CCC(=O)NC3=O)cc2)CC1 [Compound 315, (3R)—N-[5-chloro-3-(1-{4-[(3R)-4-({1-[4-(2,4-dioxo-1,3-diazinan-1-yl)phenyl]piperidin-4-yl}methyl)-3-methylpiperazin-1-yl]phenyl}-3-(pyridin-4-yl)-1H-pyrazol-4-yl)-2-fluorophenyl]-3-fluoropyrrolidine-1-sulfonamide] | < 0.01 | > 70 | 0.01 to 0.05 | 30 to 70 | < 0.01 | > 70 | < 0.01 | 30 to 70 |  |  |  |  |  |  |  |  |
| O=C1CCC(c2ccc(N3CCC(CN4CCN(c5ccc(-n6cc(-c7cc(C(F)F)cc(NS(=O)(=O)N8CCCC8)c7F)c(-c7ccncc7)n6)cc5)CC4)CC3)nc2)C(=O)N1 (racemic) [Compound 350, Rac-N-[5-(difluoromethyl)-3-[1-(4-{4-[(1-{5-[(3R)-2,6-dioxopiperidin-3-yl]pyridin-2-yl}piperidin-4-yl)methyl]piperazin-1-yl}phenyl)-3-(pyridin-4-yl)-1H-pyrazol-4-yl]-2-fluorophenyl]pyrrolidine-1-sulfonamide] | < 0.01 | > 70 | < 0.01 | > 70 | < 0.01 | > 70 | < 0.01 | > 70 |  |  |  |  |  |  |  |  |
| O=C1CCC(c2ccc(N3CCC(CN4CCN(c5ccc(-n6cc(-c7cc(Cl)cc(NS(=O)(=O)N8CC(F)C8)c7F)c(-c7ccncc7)n6)cc5)CC4)CC3)nc2)C(=O)N1 (racemic) [Compound 332, Rac-N-{5-chloro-3-[1-(4-{4-[(1-{5-[(3R)-2,6-dioxopiperidin-3-yl]pyridin-2-yl}piperidin-4-yl)methyl]piperazin-1-yl}phenyl)-3-(pyridin-4-yl)-1H-pyrazol-4-yl]-2-fluorophenyl}-3-fluoroazetidine-1-sulfonamide] | < 0.01 | > 70 | < 0.01 | > 70 | < 0.01 | > 70 | < 0.01 | 30 to 70 |  |  |  |  |  |  |  |  |
| O=C1CCC(c2c(F)cc(N3CCC(CN4CCN(c5ccc(-n6cc(-c7cc(Cl)cc(NS(=O)(=O)N8CCCC8)c7F)c(-c7ccncc7)n6)cc5)CC4)CC3)cc2F)C(=O)N1 (racemic) [Compound 387, Rac-N-{5-chloro-3-[1-(4-{4-[(1-{4-[(3R)-2,6-dioxopiperidin-3-yl]-3,5-difluorophenyl}piperidin-4-yl)methyl]piperazin-1-yl}phenyl)-3-(pyridin-4-yl)-1H-pyrazol-4-yl]-2-fluorophenyl}pyrrolidine-1-sulfonamide] | 0.01 to 0.05 | > 70 | 0.01 to 0.05 | 30 to 70 | < 0.01 | > 70 | < 0.01 | 30 to 70 |  |  |  |  |  |  |  |  |
| O=C1CC[C@H](c2ccc(N3CCC(CN4CCN(c5ccc(-n6cc(-c7cc(Cl)cc(NS(=O)(=O)N8CC(F)C8)c7F)c(-c7ccncc7)n6)cc5)CC4)CC3)nc2)C(=O)N1 [Compound 331, N-{5-chloro-3-[1-(4-{4-[(1-{5-[(3R)-2,6-dioxopiperidin-3-yl]pyridin-2-yl}piperidin-4-yl)methyl]piperazin-1-yl}phenyl)-3-(pyridin-4-yl)-1H-pyrazol-4-yl]-2-fluorophenyl}-3-fluoroazetidine-1-sulfonamide] | < 0.01 | > 70 | < 0.01 | > 70 | < 0.01 | > 70 | < 0.01 | 30 to 70 |  |  |  |  |  |  |  |  |
| CCCS(=O)(=O)Nc1cccc(-c2nc(C3CCN(C(=O)C4CCN(CC5CCN(c6ccc(C7CCC(=O)NC7=O)cn6)CC5)CC4)CC3)sc2-c2ccnc(N)n2)c1F (racemic) [Compound 261, Rac-N-{3-[5-(2-aminopyrimidin-4-yl)-2-(1-{1-[(1-{5-[(3R)-2,6-dioxopiperidin-3-yl]pyridin-2-yl}piperidin-4-yl)methyl]piperidine-4-carbonyl}piperidin-4-yl)-1,3-thiazol-4-yl]-2-fluorophenyl}propane-1-sulfonamide] | < 0.01 | > 70 | > 0.5 | 30 to 70 | 0.05 to 0.5 | 30 to 70 | > 0.5 | 30 to 70 |  |  |  |  |  |  |  |  |
